The structures appear in SMILES notation. pIC50: −log10 of the molar value.

Chain of Nav 1.7 (Q15858 whole entry): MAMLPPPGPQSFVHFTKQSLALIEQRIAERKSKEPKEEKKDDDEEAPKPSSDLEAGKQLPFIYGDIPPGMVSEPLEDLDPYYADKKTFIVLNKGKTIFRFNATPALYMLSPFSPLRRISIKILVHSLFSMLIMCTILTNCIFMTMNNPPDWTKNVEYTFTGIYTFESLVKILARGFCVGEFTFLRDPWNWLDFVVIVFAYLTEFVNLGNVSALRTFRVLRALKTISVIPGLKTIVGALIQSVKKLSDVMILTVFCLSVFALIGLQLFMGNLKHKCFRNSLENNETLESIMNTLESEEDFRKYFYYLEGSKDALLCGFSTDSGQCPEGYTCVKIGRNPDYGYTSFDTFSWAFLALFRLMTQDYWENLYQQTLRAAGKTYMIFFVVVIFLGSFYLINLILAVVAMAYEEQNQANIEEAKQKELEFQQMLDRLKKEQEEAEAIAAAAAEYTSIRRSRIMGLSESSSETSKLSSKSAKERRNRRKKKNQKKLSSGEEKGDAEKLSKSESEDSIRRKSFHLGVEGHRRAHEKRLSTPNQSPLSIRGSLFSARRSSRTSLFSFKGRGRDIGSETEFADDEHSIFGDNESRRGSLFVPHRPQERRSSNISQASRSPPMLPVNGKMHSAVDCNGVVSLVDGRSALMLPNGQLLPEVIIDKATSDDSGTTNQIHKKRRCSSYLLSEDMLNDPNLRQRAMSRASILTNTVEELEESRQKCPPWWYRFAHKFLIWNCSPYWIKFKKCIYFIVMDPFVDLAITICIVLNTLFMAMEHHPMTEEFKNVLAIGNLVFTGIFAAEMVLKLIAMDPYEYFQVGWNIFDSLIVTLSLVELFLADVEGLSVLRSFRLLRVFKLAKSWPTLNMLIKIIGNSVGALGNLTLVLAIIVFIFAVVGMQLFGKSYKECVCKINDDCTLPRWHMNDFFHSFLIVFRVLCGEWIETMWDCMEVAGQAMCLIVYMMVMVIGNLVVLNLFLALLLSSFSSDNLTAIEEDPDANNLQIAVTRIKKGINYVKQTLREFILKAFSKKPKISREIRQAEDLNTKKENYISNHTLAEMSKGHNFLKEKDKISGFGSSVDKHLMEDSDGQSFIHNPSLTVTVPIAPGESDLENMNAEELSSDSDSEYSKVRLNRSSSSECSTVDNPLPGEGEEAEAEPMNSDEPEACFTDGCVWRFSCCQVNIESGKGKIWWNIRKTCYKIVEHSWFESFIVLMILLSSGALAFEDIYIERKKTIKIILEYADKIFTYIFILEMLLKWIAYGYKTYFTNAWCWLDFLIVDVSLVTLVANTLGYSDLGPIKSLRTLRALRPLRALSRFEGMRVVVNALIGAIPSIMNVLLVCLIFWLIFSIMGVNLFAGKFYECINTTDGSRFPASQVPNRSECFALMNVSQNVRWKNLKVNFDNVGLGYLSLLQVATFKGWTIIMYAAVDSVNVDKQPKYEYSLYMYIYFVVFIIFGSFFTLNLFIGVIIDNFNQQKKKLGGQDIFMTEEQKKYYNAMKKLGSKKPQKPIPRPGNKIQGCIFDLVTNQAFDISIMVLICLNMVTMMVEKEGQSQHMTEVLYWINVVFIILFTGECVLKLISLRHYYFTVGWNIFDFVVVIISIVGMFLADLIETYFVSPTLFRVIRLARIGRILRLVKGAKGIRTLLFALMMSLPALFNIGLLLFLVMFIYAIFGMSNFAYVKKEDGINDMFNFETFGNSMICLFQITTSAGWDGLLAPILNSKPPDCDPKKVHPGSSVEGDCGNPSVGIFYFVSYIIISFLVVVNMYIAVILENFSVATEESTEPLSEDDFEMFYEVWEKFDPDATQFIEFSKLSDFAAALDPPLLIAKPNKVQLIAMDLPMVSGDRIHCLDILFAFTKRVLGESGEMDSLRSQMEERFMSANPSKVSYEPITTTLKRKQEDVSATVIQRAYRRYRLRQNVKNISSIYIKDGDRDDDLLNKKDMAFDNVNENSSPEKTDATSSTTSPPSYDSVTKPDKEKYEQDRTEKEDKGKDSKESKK

The first test addresses Nav 1.7 (Homo sapiens (Human), UniProt Q15858). Kind of test: in-vitro Nav 1.7 PX data. In kind it is cell-based. To be noted: PatchXpress (PX), in vitro.
The pIC50 is −log10 of the IC50, conventionally taken in molar units. As to `COc1cc(-c2ccc(F)c(C)c2)c(Cl)cc1-c1nccc2cc(S(=O)(=O)Nc3ccon3)ccc12` [Example 94, 1-(2-chloro-4′-fluoro-5-methoxy-3′-methyl-4-biphenylyl)-N-3-isoxazolyl-6-isoquinolinesulfonamide], the pIC50 is 7.30.
Same read-out and setting: next, `COc1cc(-c2cccc(Cl)c2)c(F)cc1-c1nccc2cc(S(=O)(=O)Nc3ncccn3)ccc12` [Example 97, 1-(3′-chloro-2-fluoro-5-methoxy-4-biphenylyl)-N-2-pyrimidinyl-6-isoquinolinesulfonamide]: 6.95.
On the same count and under the same terms, the value for `COc1nc(Oc2ccc(F)cc2)ccc1-c1nccc2cc(S(=O)(=O)Nc3ccncn3)ccc12` [Example 45, 1-(6-(4-FLUOROPHENOXY)-2-METHOXYPYRIDIN-3-YL)-N-(PYRIMIDIN-4-YL)ISOQUINOLINE-6-SULFONAMIDE] was 5.82; that for `COc1nc(N(CC(C)C)CC(C)C)ccc1-c1nccc2cc(S(=O)(=O)Nc3ccncn3)ccc12` [Example 46, 1-(6-(DIISOBUTYLAMINO)-2-METHOXYPYRIDIN-3-YL)-N-(PYRIMIDIN-4-YL)ISOQUINOLINE-6-SULFONAMIDE] was 4.87; that for `COc1cc(-c2ccc(Cl)c(C)c2)c(F)cc1-c1nccc2cc(S(=O)(=O)Nc3ncccn3)ccc12` [Example 88, 1-(4′-chloro-2-fluoro-5-methoxy-3′-methyl-4-biphenylyl)-N-2-pyrimidinyl-6-isoquinolinesulfonamide] was 6.64.
Still for that read-out and setting: the value for `COc1nc(OC2CCC(F)(F)CC2)ccc1-c1nccc2cc(S(=O)(=O)Nc3ccncn3)ccc12` [Example 75, 1-(6-((4,4-difluorocyclohexyl)oxy)-2-methoxy-3-pyridinyl)-N-4-pyrimidinyl-6-isoquinolinesulfonamide] was 6.14.
Turning to `COc1nc(N2CCC(F)(F)CC2)ccc1-c1nccc2cc(S(=O)(=O)Nc3ccncn3)ccc12` [Example 71, 1-(6-(4,4-difluoro-1-piperidinyl)-2-methoxy-3-pyridinyl)-N-4-pyrimidinyl-6-isoquinolinesulfonamide], the pIC50 is 6.08.
Still for that read-out and setting: next, `COc1nc(OCC(C)(C)C)ccc1-c1nccc2cc(S(=O)(=O)Nc3ccncn3)ccc12` [Example 67, 1-(6-(2,2-dimethylpropoxy)-2-methoxy-3-pyridinyl)-N-4-pyrimidinyl-6-isoquinolinesulfonamide]: 6.00; `COc1cc(-c2cc(F)cnc2OC)c(F)cc1-c1nccc2cc(S(=O)(=O)Nc3ncccn3)ccc12` [Example 92, 1-(5-fluoro-4-(5-fluoro-2-methoxy-3-pyridinyl)-2-methoxyphenyl)-N-2-pyrimidinyl-6-isoquinolinesulfonamide]: 6.56; `COc1nc(NC2CCC(F)(F)CC2)ccc1-c1nccc2cc(S(=O)(=O)Nc3ccncn3)ccc12` [Example 74, 1-(6-((4,4-difluorocyclohexyl)amino)-2-methoxy-3-pyridinyl)-N-4-pyrimidinyl-6-isoquinolinesulfonamide]: 6.09.
`COc1cc(-c2cc(F)cnc2OC)c(F)cc1-c1nccc2cc(S(=O)(=O)Nc3ccon3)ccc12` [Example 93, 1-(5-fluoro-4-(5-fluoro-2-methoxy-3-pyridinyl)-2-methoxyphenyl)-N-3-isoxazolyl-6-isoquinolinesulfonamide] gave a pIC50 of 7.17.
Same read-out and setting: next, `COc1cc(-c2ccc(F)c(C)c2)c(F)cc1-c1nccc2cc(S(=O)(=O)Nc3ccon3)ccc12` [Example 89, 1-(2,4′-difluoro-5-methoxy-3′-methyl-4-biphenylyl)-N-3-isoxazolyl-6-isoquinolinesulfonamide]: 7.02.
Same read-out and setting: next, `COc1cc(-c2cc(F)cnc2OC)c(F)cc1-c1nccc2cc(S(=O)(=O)Nc3ccsn3)ccc12` [Example 99, 1-(5-fluoro-4-(5-fluoro-2-methoxy-3-pyridinyl)-2-methoxyphenyl)-N-3-isothiazolyl-6-isoquinolinesulfonamide]: 7.18.

Staying with this test, now noted: in-vitro Nav 1.7 PX data.
In turn, `COc1cc(Oc2ccc(F)c(C)c2)ccc1-c1nccc2cc(S(=O)(=O)Nc3ccncn3)ccc12` [Example 29, 1-(4-(4-FLUORO-3-METHYLPHENOXY)-2-METHOXYPHENYL)-N-(PYRIMIDIN-4-YL)ISOQUINOLINE-6-SULFONAMIDE] showed a pIC50 of 5.80.
Same read-out and setting: next, `COc1cc(-c2cccc(C(F)(F)F)c2)c(C#N)cc1-c1nccc2cc(S(=O)(=O)Nc3ccon3)ccc12` [Example 148, 1-(2-cyano-5-methoxy-3′-(trifluoromethyl)-4-biphenylyl)-N-3-isoxazolyl-6-isoquinolinesulfonamide]: 7.54; `COc1cc(C(F)F)c(Cl)cc1-c1nccc2cc(S(=O)(=O)Nc3ccon3)ccc12` [Example 169, 1-(5-chloro-4-(difluoromethyl)-2-methoxyphenyl)-N-3-isoxazolyl-6-isoquinolinesulfonamide]: 6.98; `COc1cc(C#N)c(-c2cc(F)cc(F)c2)cc1-c1nccc2cc(S(=O)(=O)Nc3ccncn3)ccc12` [Example 145, 1-(6-cyano-3′,5′-difluoro-4-methoxy-3-biphenylyl)-N-4-pyrimidinyl-6-isoquinolinesulfonamide]: 5.04.
For the compound `COc1ncc(-c2ccccc2)cc1-c1nccc2cc(S(=O)(=O)Nc3ccncn3)ccc12` [Example 152, 1-(2-methoxy-5-phenyl-3-pyridinyl)-N-4-pyrimidinyl-6-isoquinolinesulfonamide], the pIC50 was 5.61.
Same read-out and setting: next, `COc1ccc(C)c(-c2cc(C)c(-c3ncnc4cc(S(=O)(=O)Nc5ccon5)ccc34)cc2OC)c1` [Example 173, 4-(2,5′-dimethoxy-2′,5-dimethyl-4-biphenylyl)-N-3-isoxazolyl-7-quinazolinesulfonamide]: 5.42.

The same test, now with this note: in-vitro PX.
For `COc1nc(N(C)C)c(Cl)cc1-c1nccc2cc(S(=O)(=O)Nc3nncs3)ccc12` [Example 242, 1-(5-chloro-6-(dimethylamino)-2-methoxy-3-pyridinyl)-N-1,3,4-thiadiazol-2-yl-6-isoquinolinesulfonamide], the pIC50 is 5.73.
`COc1cc(N2CC(F)(F)C2)c(C#N)cc1-c1nccc2cc(S(=O)(=O)Nc3nncs3)ccc12` [Example 24, 1-(5-CYANO-4-(3,3-DIFLUOROAZETIDIN-1-YL)-2-METHOXYPHENYL)-N-(1,3,4-THIADIAZOL-2-YL)ISOQUINOLINE-6-SULFONAMIDE] gave a negative-log IC50 (pIC50) of 5.87.
On the same count and under the same terms, the value for `COc1cc(-c2cccc(F)c2)c(Cl)cc1-c1n[nH]c(=O)c2cc(S(=O)(=O)Nc3ccon3)ccc12` [Example 232, 1-(2-chloro-3′-fluoro-5-methoxy-4-biphenylyl)-N-3-isoxazolyl-4-oxo-3,4-dihydro-6-phthalazinesulfonamide] was 6.90.
On the same count and under the same terms, next, `COc1cc(-c2cccc(F)n2)c(F)cc1-c1nccc2cc(S(=O)(=O)Nc3nncs3)ccc12` [Example 212, 1-(5-fluoro-4-(6-fluoro-2-pyridinyl)-2-methoxyphenyl)-N-1,3,4-thiadiazol-2-yl-6-isoquinolinesulfonamide]: 5.86.
The same measure, in the same setting: next, `COc1cc(-c2cc(F)cc(F)c2)c(Cl)cc1-c1ncnc2cc(S(=O)(=O)Nc3ccon3)ccc12` [Example 206, 4-(2-chloro-3′,5′-difluoro-5-methoxy-4-biphenylyl)-N-3-isoxazolyl-7-quinazolinesulfonamide]: 7.84.

The test is the same for the next values; noted with them: in-vitro PX (PatchXpress) data.
`COc1cc(-c2ccc(F)c(Cl)c2)c(Cl)cc1-c1ncnc2cc(S(=O)(=O)Nc3ccon3)ccc12` [Example 19, 4-(2,3′-DICHLORO-4′-FLUORO-5-METHOXY-[1,1′-BIPHENYL]-4-YL)-N-(ISOXAZOL-3-YL)QUINAZOLINE-7-SULFONAMIDE] had a pIC50 of 8.11.
On the same count and under the same terms, the value for `COc1cc(-c2cc(F)cc(F)c2)ccc1-c1ccnc2cc(S(=O)(=O)Nc3nncs3)ccc12` [Example 13, 4-(3′,5′-DIFLUORO-3-METHOXY-[1,1′-BIPHENYL]-4-YL)-N-(1,3,4-THIADIAZOL-2-YL)QUINOLINE-7-SULFONAMIDE] was 6.34.
On the same count and under the same terms, the value for `COc1ccc(-c2ccc(-c3nccc4cc(S(=O)(=O)Nc5nncs5)ccc34)c(OC)c2)c(F)n1` [Example 196, 1-(4-(2-fluoro-6-methoxy-3-pyridinyl)-2-methoxyphenyl)-N-1,3,4-thiadiazol-2-yl-6-isoquinolinesulfonamide] was 5.98; that for `COc1cc(-c2cccc(F)c2)c(Cl)cc1-c1ncnc2cc(S(=O)(=O)Nc3cccnn3)ccc12` [Example 15, 4-(2-CHLORO-3′-FLUORO-5-METHOXY-[1,1′-BIPHENYL]-4-YL)-N-(PYRIDAZIN-3-YL)QUINAZOLINE-7-SULFONAMIDE] was 6.96.

The test is the same for the next values; noted with them: in-vitro PX data.
As for `COc1cc(Br)c(Cl)cc1-c1nccc2cc(S(=O)(=O)Nc3ccon3)ccc12` [Example 117, 1-(4-bromo-5-chloro-2-methoxyphenyl)-N-3-isoxazolyl-6-isoquinolinesulfonamide], the pIC50 is 6.97.
Same read-out and setting: the value for `COc1cc(-c2ccc(Cl)c(C)c2)c(Cl)cc1-c1nccc2cc(S(=O)(=O)Nc3ccon3)ccc12` [Example 119, 1-(2,4′-dichloro-5-methoxy-3′-methyl-4-biphenylyl)-N-3-isoxazolyl-6-isoquinolinesulfonamide] was 7.13; that for `COc1cc(-c2cccc(Cl)c2)c(F)cc1-c1ncnc2cc(S(=O)(=O)Nc3ccon3)ccc12` [Example 104, 4-(3′-chloro-2-fluoro-5-methoxy-4-biphenylyl)-N-3-isoxazolyl-7-quinazolinesulfonamide] was 8.08.
`COc1cc(-c2cc(F)cc(F)c2)ccc1-c1nccc2cc(S(=O)(=O)Nc3ncc(C#N)s3)ccc12` [Example 132, N-(5-cyano-1,3-thiazol-2-yl)-1-(3′,5′-difluoro-3-methoxy-4-biphenylyl)-6-isoquinolinesulfonamide] showed a negative logarithm of the IC50 (pIC50) of 6.16.
The same measure, in the same setting: the value for `COc1cc(-c2cc(F)cc(F)c2)ccc1-c1nccc2cc(S(=O)(=O)Nc3cc(C)on3)ccc12` [Example 126, 1-(3′,5′-difluoro-3-methoxy-4-biphenylyl)-N-(5-methyl-3-isoxazolyl)-6-isoquinolinesulfonamide] was 5.38.
On the same count and under the same terms, next, `COc1cc(-c2cc(F)cnc2OC)c(Cl)cc1-c1nccc2cc(S(=O)(=O)Nc3ccon3)ccc12` [Example 105, 1-(5-chloro-4-(5-fluoro-2-methoxy-3-pyridinyl)-2-methoxyphenyl)-N-3-isoxazolyl-6-isoquinolinesulfonamide]: 7.53.
